Results published in ChEMBL document CHEMBL3991601, “The target landscape of clinical kinase drugs” (Science, 2017).
Calls of active or inactive are those of the source. Cut-off read from the data, not from the text of the source, for most assays here: actives have a measured Kd and inactives only a lower limit.

Legend:
[1] = molecular target: Actin-related protein 2 (Homo sapiens, UniProt P61160)
[2] = molecular target: Cyclin-dependent kinase 1 (Homo sapiens, UniProt P06493)
[3] = molecular target: Dual specificity tyrosine-phosphorylation-regulated kinase 1A (Homo sapiens, UniProt Q13627)
[4] = molecular target: T1, Ephrin type-B receptor 6 (Homo sapiens, UniProt O15197)
T1 sequence (O15197 whole entry): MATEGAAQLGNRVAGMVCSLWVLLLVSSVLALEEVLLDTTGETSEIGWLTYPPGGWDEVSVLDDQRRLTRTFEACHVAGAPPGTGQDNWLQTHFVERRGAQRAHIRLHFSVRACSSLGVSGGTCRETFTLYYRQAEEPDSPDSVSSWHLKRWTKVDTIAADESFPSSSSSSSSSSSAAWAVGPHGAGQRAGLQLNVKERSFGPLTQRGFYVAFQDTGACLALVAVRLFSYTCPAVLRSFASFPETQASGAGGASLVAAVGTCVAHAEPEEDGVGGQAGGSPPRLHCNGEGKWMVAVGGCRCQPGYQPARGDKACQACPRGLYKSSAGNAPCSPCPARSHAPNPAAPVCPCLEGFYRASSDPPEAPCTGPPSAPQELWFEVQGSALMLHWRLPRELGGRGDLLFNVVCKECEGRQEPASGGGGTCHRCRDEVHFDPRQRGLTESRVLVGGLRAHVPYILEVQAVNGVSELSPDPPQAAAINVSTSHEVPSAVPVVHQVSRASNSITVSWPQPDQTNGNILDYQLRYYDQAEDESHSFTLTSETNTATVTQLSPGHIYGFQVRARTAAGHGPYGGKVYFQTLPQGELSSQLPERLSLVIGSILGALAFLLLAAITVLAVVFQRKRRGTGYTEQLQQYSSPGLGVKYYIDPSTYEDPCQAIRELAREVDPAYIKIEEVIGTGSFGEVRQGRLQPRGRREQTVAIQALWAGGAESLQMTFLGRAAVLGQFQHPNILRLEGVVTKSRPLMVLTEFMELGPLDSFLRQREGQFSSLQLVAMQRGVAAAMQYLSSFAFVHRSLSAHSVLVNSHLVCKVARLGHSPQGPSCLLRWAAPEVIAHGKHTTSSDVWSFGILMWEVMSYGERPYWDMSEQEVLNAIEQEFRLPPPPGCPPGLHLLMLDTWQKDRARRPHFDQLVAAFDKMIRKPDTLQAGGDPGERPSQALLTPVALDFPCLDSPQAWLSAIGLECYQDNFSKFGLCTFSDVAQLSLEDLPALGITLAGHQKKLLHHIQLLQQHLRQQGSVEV

[5] = molecular target: Serine/threonine-protein kinase/endoribonuclease IRE1 (Homo sapiens, UniProt O75460)
Chain of Serine/threonine-protein kinase/endoribonuclease IRE1 (O75460 whole entry): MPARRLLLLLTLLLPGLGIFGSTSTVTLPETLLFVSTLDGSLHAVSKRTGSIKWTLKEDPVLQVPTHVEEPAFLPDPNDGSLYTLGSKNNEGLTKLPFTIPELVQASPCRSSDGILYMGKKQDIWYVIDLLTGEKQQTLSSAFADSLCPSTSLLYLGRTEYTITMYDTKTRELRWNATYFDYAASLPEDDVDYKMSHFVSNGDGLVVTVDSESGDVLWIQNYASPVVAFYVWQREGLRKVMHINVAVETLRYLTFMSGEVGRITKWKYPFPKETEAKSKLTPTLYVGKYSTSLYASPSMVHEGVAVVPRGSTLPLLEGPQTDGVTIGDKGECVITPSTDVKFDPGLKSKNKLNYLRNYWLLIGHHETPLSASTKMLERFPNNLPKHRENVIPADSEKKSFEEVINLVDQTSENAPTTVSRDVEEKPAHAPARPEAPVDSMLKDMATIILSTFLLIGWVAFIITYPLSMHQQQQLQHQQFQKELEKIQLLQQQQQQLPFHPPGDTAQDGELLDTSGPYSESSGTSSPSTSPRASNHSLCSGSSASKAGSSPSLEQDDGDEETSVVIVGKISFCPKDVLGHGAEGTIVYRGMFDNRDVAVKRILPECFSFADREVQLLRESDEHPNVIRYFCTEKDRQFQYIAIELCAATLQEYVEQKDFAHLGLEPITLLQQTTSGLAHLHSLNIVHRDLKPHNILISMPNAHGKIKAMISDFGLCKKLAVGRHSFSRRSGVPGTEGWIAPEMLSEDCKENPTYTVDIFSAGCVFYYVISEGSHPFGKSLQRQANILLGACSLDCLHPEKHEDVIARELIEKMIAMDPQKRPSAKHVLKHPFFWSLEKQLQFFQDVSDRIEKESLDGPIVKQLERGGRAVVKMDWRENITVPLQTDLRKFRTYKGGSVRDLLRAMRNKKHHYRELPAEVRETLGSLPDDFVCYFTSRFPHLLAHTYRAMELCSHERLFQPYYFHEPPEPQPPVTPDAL

[6] = molecular target: Rho-associated protein kinase 2 (Homo sapiens, UniProt O75116)
Chain of Rho-associated protein kinase 2 (O75116 whole entry): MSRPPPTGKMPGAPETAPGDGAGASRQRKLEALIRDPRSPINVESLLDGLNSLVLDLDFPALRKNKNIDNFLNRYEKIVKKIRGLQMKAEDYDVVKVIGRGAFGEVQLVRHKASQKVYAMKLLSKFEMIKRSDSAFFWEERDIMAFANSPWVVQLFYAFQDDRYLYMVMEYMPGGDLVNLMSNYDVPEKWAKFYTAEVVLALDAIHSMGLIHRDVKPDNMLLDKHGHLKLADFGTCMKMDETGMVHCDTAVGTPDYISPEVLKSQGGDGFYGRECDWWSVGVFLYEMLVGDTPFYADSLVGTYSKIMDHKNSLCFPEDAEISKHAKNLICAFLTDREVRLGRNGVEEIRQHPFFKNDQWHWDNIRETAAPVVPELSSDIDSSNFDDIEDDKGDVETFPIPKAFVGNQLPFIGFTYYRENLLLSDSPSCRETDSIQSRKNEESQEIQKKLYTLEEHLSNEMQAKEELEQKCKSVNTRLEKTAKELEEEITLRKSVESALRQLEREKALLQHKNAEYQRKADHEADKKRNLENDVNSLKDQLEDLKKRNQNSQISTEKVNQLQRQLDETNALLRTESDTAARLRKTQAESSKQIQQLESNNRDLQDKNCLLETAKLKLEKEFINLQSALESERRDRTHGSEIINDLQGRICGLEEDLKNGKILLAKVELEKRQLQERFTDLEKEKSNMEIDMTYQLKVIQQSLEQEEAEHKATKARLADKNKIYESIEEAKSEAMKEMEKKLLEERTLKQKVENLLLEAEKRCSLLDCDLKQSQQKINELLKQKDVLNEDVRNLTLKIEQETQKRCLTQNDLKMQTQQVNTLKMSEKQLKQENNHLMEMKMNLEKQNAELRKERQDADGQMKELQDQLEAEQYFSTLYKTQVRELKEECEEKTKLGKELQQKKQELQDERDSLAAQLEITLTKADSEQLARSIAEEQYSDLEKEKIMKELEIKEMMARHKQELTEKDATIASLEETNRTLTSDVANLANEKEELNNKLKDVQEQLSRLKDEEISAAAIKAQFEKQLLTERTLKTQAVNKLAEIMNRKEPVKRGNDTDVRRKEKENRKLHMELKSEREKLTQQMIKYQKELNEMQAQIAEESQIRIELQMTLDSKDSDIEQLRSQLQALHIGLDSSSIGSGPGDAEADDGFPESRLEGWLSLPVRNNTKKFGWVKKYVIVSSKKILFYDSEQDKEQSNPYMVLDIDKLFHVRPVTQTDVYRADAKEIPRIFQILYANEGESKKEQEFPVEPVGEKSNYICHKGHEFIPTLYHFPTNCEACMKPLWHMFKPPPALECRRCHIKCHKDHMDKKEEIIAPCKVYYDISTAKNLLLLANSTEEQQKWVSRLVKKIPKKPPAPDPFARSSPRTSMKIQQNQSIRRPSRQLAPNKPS

[7] = molecular target: Ribosomal protein S6 kinase alpha-1 (Homo sapiens, UniProt Q15418)
Chain of Ribosomal protein S6 kinase alpha-1 (Q15418 whole entry): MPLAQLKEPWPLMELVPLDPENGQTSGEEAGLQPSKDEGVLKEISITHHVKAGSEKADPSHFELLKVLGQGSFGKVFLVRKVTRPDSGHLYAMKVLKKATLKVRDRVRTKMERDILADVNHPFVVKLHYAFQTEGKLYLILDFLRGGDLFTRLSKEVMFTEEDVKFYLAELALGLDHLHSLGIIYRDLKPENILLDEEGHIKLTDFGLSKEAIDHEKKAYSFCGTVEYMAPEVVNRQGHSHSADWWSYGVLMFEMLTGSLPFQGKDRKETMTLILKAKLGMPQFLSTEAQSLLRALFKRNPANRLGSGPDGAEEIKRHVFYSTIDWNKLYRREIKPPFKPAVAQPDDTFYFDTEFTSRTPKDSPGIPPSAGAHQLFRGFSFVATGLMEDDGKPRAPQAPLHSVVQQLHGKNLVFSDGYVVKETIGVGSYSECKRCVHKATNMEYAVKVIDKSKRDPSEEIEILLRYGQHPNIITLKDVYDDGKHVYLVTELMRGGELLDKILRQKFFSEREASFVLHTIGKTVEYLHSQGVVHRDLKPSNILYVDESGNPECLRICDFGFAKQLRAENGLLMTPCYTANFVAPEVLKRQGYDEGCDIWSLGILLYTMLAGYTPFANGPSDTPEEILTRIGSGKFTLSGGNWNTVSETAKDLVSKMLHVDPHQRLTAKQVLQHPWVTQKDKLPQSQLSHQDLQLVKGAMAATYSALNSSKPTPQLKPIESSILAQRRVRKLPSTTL

[8] = molecular target: Serine/threonine-protein kinase SIK3 (Homo sapiens, UniProt Q9Y2K2)
Chain of Serine/threonine-protein kinase SIK3 (Q9Y2K2 whole entry): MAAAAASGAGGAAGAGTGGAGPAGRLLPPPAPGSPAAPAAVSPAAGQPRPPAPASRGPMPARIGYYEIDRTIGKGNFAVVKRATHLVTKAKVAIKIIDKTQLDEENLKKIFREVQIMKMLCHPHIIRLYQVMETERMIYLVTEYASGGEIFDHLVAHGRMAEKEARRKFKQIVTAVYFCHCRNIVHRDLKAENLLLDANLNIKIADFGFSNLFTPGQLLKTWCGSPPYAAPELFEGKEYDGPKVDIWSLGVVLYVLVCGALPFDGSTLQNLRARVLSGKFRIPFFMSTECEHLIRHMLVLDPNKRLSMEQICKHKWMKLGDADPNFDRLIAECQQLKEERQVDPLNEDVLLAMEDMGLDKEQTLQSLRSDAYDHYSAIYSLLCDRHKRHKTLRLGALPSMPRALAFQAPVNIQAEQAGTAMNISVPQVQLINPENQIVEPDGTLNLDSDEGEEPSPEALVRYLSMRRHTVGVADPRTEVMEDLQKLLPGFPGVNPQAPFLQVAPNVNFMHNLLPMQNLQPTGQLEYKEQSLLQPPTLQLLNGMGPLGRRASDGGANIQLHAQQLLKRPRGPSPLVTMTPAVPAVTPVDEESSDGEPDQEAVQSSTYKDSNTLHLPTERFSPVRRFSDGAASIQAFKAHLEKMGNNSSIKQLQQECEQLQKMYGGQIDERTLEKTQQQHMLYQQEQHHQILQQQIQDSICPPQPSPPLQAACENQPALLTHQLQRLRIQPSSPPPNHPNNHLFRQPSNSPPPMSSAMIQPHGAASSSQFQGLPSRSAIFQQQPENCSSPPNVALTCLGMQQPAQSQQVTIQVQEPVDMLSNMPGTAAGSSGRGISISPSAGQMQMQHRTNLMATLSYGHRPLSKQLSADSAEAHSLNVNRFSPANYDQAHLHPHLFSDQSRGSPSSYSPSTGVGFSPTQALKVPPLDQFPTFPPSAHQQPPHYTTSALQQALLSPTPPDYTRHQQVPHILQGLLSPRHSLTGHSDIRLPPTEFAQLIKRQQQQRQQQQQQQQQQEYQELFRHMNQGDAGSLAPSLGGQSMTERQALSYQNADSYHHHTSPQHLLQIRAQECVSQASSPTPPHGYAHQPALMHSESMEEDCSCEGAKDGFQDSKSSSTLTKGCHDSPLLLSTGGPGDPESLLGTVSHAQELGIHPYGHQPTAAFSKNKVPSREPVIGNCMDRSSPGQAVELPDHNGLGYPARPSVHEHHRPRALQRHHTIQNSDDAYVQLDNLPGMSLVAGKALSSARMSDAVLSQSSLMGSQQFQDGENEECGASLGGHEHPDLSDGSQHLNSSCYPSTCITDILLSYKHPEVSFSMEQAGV

[9] = molecular target: T2, Serine/threonine-protein kinase TAO2 (Homo sapiens, UniProt Q9UL54)
T2 sequence (Q9UL54 whole entry): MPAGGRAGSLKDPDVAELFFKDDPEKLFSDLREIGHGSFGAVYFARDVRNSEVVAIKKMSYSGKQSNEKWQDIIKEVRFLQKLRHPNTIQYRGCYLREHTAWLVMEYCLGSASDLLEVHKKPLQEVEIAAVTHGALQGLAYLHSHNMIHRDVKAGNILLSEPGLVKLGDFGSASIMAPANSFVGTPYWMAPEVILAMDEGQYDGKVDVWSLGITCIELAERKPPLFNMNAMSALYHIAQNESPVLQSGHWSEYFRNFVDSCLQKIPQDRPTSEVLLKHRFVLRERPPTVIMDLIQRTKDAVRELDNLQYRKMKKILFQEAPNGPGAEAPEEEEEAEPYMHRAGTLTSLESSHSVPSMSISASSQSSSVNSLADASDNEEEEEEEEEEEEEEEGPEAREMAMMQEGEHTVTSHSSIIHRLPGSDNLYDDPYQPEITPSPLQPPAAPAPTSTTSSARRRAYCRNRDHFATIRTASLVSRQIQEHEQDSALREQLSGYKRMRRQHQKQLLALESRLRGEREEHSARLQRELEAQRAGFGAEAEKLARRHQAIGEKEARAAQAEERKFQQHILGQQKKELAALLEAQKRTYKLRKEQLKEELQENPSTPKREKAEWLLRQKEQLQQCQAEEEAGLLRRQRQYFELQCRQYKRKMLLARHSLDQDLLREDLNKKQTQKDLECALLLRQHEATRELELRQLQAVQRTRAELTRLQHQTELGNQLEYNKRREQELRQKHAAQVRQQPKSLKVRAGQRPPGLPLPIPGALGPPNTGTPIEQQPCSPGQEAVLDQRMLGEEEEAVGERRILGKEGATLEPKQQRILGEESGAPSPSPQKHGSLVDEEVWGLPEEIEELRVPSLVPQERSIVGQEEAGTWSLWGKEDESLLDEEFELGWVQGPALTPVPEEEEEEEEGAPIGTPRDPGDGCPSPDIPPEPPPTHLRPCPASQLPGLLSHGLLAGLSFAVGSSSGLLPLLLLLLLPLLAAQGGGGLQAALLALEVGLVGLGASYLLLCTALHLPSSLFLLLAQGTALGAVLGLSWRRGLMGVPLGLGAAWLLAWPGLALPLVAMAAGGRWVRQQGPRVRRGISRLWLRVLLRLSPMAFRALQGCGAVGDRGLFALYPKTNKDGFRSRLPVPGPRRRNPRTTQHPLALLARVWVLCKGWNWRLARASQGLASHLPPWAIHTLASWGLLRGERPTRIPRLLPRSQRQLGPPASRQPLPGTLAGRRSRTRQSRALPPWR
Note: in the data inactive means no Kd found up to 30 µM.

Chain of Cyclin-dependent kinase 1 (P06493 whole entry): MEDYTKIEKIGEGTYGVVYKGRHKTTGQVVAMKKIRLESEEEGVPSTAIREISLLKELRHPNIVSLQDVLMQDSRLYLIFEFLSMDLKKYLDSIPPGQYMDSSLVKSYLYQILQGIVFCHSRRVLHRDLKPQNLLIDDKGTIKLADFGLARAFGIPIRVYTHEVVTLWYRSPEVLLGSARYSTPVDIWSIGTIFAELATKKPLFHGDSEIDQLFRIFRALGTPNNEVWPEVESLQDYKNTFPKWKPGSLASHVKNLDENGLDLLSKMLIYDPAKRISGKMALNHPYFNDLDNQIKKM

| Kd [1] | Kd [2] | Kd [3] | Kd [4] | Kd [5] | Kd [6] | Kd [7] | Kd [8] | Kd [9] | SMILES |
| --- | --- | --- | --- | --- | --- | --- | --- | --- | --- |
| > 30 µM (inactive) | > 30 µM (inactive) | > 30 µM (inactive) | > 30 µM (inactive) | > 30 µM (inactive) | > 30 µM (inactive) | > 30 µM (inactive) | > 30 µM (inactive) | > 30 µM (inactive) | CNC(=O)c1cc(COc2nnc(Nc3ccc(Cl)cc3)c3ccoc23)ccn1 [TELATINIB] |
| > 30 µM (inactive) | > 30 µM (inactive) | > 30 µM (inactive) | > 30 µM (inactive) | > 30 µM (inactive) | > 30 µM (inactive) | > 30 µM (inactive) | > 30 µM (inactive) | > 30 µM (inactive) | NC(=O)c1ccc(N(C(N)=O)c2c(F)cccc2F)nc1-c1ccc(F)cc1F [VX-702] |
| > 30 µM (inactive) | > 30 µM (inactive) | > 30 µM (inactive) | > 30 µM (inactive) | > 30 µM (inactive) | > 30 µM (inactive) | > 30 µM (inactive) | > 30 µM (inactive) | > 30 µM (inactive) | COc1cc2ncnc(Nc3ccc(O)cc3)c2cc1OC [WHI-P131] |

Further lines, the compound ahead of its results:

| SMILES | Kd [1] | Kd [2] | Kd [3] | Kd [4] | Kd [5] | Kd [6] | Kd [7] | Kd [8] | Kd [9] |
| --- | --- | --- | --- | --- | --- | --- | --- | --- | --- |
| Cc1cc(-c2cc(OC(=O)c3ccccc3)ccc2Cl)cc2nnc(Nc3ccc(OCCN4CCCC4)cc3)nc12 [TG100-801] | > 30 µM (inactive) | > 30 µM (inactive) | > 30 µM (inactive) | > 30 µM (inactive) | > 30 µM (inactive) | > 30 µM (inactive) | > 30 µM (inactive) | > 30 µM (inactive) | > 30 µM (inactive) |
| C[C@@H]1COC(Nc2ccc3ncnc(Nc4ccc(OCc5nccs5)c(Cl)c4)c3c2)=N1 [VARLITINIB] | > 30 µM (inactive) | > 30 µM (inactive) | > 30 µM (inactive) | > 30 µM (inactive) | > 30 µM (inactive) | > 30 µM (inactive) | > 30 µM (inactive) | > 30 µM (inactive) | > 30 µM (inactive) |
| CNC(=O)c1cccc(-c2ccc3c(N4CCOC[C@@H]4C)nc(N4CCOC[C@@H]4C)nc3n2)c1 [VISTUSERTIB] | > 30 µM (inactive) | > 30 µM (inactive) | > 30 µM (inactive) | > 30 µM (inactive) | > 30 µM (inactive) | > 30 µM (inactive) | > 30 µM (inactive) | > 30 µM (inactive) | > 30 µM (inactive) |
